{"source": "ChEMBL document CHEMBL1201862", "about": "“PubChem BioAssay data set” (2004)", "key": {"[1]": {"biological_target": "Peroxisome proliferator-activated receptor gamma/Nuclear receptor corepressor 2 (Homo sapiens, UniProt P37231+Q9Y618)", "sequence (P37231 whole entry)": "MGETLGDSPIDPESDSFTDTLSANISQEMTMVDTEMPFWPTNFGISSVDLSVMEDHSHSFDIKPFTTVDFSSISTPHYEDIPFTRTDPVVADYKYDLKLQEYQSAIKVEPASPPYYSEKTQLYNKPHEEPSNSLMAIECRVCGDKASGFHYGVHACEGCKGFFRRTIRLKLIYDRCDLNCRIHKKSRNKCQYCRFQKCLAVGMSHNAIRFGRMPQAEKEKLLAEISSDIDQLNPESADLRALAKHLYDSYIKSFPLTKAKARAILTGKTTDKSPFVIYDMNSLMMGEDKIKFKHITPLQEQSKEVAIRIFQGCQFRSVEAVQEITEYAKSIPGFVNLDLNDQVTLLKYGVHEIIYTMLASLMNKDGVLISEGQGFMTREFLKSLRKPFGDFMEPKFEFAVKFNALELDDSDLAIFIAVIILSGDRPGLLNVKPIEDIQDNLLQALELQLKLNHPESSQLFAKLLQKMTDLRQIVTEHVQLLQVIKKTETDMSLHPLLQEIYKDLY", "sequence (Q9Y618 whole entry)": "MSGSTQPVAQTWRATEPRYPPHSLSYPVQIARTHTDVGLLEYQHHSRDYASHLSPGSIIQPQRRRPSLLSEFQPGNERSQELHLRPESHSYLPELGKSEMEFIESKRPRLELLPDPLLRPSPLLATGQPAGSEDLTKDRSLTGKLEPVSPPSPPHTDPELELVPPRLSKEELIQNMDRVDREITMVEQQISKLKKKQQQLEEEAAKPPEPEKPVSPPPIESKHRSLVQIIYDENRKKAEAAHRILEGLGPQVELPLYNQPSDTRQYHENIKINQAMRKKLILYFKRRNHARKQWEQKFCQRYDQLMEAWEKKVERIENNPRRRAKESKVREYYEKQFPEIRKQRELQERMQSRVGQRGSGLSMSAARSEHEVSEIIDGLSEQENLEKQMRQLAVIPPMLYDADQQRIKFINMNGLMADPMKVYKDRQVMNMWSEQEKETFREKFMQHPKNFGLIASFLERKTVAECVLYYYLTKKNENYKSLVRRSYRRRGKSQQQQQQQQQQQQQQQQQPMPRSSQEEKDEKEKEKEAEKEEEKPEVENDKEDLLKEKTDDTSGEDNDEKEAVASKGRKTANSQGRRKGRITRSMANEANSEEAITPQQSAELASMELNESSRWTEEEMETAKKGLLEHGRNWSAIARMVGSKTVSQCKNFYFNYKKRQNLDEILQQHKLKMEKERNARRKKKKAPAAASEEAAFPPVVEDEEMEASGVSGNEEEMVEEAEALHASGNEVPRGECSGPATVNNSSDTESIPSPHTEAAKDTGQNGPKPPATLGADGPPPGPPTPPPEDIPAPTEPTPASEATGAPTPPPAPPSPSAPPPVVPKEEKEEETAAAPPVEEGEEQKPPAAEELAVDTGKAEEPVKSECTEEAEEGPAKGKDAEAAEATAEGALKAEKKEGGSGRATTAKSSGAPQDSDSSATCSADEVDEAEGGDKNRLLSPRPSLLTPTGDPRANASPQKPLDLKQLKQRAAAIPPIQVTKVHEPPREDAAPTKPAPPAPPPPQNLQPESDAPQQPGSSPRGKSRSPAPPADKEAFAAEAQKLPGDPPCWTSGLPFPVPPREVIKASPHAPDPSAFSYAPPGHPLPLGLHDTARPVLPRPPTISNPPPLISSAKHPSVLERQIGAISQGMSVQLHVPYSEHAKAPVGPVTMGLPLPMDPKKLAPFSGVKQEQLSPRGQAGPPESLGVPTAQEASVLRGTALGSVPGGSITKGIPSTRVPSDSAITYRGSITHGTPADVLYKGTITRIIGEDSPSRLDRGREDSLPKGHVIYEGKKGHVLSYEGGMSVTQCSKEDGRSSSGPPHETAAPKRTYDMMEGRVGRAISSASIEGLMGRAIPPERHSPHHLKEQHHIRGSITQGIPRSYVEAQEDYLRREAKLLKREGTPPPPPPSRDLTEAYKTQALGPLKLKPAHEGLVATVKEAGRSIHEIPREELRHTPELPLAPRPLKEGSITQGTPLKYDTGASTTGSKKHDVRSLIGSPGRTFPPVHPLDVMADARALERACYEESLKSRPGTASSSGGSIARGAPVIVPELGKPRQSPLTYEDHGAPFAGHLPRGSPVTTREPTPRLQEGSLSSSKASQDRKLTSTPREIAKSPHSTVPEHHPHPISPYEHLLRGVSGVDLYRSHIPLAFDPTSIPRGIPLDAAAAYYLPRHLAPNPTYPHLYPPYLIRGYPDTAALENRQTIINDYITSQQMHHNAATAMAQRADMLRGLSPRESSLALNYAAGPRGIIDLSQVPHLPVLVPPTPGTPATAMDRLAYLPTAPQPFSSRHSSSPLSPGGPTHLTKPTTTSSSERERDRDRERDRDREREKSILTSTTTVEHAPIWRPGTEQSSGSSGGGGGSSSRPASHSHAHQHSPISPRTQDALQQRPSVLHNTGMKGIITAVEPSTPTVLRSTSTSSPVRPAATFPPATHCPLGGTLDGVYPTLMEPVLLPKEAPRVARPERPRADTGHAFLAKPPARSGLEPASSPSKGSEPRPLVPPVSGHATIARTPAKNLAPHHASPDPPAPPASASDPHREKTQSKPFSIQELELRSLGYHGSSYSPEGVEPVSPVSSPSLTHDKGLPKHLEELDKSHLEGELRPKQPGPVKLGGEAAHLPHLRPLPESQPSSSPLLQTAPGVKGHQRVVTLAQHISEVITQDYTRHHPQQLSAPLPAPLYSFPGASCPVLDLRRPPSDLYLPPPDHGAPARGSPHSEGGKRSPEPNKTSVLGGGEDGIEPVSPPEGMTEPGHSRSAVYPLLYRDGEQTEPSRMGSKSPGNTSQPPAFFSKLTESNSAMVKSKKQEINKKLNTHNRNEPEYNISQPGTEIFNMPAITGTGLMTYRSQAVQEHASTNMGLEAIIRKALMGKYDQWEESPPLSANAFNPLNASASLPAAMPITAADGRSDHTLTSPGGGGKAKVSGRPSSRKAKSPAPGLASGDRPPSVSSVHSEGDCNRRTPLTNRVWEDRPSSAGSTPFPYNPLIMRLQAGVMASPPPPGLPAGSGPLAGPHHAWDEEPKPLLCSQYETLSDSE", "test": "Counterscreen for NR2E3 inverse agonists: TR-FRET-based biochemical high throughput dose response assay to identify inverse agonists of the interaction between peroxisome proliferator-activated receptor gamma (PPARg) and nuclear receptor co-repressor 2 (NCOR2).", "format": "functional"}, "Beta-galactosidase": {"biological_target": "Beta-galactosidase (Escherichia coli, UniProt Q8VNN2)", "test": "Dose response counterscreen for EBI2 assay utilizing the enzyme, b-galactosidase.", "format": "functional"}, "[2]": {"biological_target": "Photoreceptor-specific nuclear receptor (Homo sapiens, UniProt Q9Y5X4)", "sequence (Q9Y5X4 whole entry)": "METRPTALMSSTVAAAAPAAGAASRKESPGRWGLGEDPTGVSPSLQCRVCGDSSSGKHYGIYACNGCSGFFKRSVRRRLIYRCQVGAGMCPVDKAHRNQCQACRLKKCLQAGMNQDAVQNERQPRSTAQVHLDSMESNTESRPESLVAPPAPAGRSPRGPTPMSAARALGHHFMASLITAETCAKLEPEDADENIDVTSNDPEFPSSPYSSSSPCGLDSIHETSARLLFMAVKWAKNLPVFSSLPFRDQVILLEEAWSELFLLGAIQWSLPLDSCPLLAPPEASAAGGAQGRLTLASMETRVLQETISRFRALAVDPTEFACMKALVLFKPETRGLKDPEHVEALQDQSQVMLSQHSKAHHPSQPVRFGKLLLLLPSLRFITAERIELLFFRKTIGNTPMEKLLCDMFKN", "test": "NR2E3 inverse agonists, dose response, biochemical, TR-FRET (AID 463256)", "format": "functional"}, "Prothrombin": {"biological_target": "Prothrombin (Homo sapiens, UniProt P00734)", "test": "Thrombin 1536 HTS Dose Response Confirmation. [Related pubchem assays: 1046 (Thrombin 1536 HTS; hits were confirmed in this assay)]", "format": "functional"}, "INS1": {"tested_on": "INS1", "test": "beta cell apoptosis inhibitors, cytokine rescue, dose response, luminescence, retest (AID 449756);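 note: cell death triggered by IL-1 beta plus TNF-alpha plus IFN-gamma mixture; protective hits raise ATP signal compared with cytokine alone wells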", "format": "functional, cell-based", "conditions": "Rattus norvegicus"}, "Vero": {"tested_on": "Vero", "test": "Vero cell cytotoxicity, cytotoxicity control for flavivirus capping enzyme inhibitors (AID 588742)", "format": "functional", "conditions": "Chlorocebus sabaeus"}, "Large T antigen": {"biological_target": "Large T antigen (Simian virus 40, UniProt P03070)", "sequence (P03070 whole entry)": "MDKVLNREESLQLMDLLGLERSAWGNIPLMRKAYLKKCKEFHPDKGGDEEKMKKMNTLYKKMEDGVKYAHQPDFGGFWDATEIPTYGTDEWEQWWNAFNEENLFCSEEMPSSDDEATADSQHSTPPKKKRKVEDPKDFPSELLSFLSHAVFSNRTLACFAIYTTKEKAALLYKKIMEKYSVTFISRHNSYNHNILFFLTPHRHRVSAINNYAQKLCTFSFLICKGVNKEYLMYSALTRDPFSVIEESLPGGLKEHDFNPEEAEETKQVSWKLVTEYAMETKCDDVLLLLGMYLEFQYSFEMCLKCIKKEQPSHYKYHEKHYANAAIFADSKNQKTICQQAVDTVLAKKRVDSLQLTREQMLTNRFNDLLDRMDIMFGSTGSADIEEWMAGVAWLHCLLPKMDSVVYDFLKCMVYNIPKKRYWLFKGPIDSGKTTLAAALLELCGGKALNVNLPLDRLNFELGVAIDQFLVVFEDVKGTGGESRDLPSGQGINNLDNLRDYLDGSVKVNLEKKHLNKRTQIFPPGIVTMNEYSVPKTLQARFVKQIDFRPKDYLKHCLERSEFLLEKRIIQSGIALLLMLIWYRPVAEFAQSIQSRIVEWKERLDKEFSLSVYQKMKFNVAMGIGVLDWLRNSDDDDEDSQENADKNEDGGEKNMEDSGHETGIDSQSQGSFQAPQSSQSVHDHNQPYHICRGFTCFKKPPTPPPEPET", "format": "functional, Betapolyomavirus macacae"}, "[3]": {"biological_target": "T1, Voltage-gated N-type calcium channel alpha-1B subunit/Amyloid beta A4 precursor protein-binding family A member 1 (Homo sapiens, UniProt Q00975+Q02410)", "format": "protein assay"}, "[4]": {"biological_target": "T1, Voltage-gated N-type calcium channel alpha-1B subunit/Amyloid beta A4 precursor protein-binding family A member 1", "format": "protein assay", "remark": "listed apart in the source"}, "[5]": {"biological_target": "T2, Corticotropin-releasing factor receptor 2/Corticotropin-releasing factor-binding protein (Homo sapiens, UniProt P24387+Q13324)", "T2 sequence (Q13324 whole entry)": "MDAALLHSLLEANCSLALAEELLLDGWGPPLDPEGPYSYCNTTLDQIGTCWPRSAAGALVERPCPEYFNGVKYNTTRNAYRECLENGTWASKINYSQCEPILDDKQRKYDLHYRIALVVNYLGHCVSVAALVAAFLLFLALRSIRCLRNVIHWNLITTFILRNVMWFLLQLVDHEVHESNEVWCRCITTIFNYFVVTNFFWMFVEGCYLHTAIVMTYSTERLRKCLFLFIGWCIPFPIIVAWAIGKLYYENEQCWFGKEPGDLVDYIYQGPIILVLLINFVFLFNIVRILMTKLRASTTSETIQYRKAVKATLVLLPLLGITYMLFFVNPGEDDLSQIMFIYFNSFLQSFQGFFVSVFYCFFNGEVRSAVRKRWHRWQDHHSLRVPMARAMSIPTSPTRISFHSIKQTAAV", "T2 sequence (P24387 whole entry)": "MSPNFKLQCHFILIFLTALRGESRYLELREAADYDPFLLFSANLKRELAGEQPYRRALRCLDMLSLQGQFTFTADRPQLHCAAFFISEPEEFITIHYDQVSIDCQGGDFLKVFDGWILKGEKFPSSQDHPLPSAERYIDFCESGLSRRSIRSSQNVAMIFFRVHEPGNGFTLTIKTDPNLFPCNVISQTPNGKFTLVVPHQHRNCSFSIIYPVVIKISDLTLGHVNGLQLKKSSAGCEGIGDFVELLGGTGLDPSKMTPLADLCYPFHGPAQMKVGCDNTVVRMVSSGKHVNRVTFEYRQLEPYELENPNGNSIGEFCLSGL", "test": "Dose Response confirmation of uHTS hits for small molecule antagonists of the CRF-binding protein and CRF-R2 receptor complex.", "format": "functional", "conditions": "read-out: IC50_Mean"}, "[6]": {"biological_target": "T2, Corticotropin-releasing factor receptor 2/Corticotropin-releasing factor-binding protein", "test": "activators of CRF receptor 2 with binding protein – uHTS hits, confirmation (AID 602473)", "format": "functional", "conditions": "read-out: EC50_Mean"}, "[7]": {"biological_target": "T3, Polyadenylate-binding protein 1 (Homo sapiens, UniProt P11940)", "T3 sequence (P11940 whole entry)": "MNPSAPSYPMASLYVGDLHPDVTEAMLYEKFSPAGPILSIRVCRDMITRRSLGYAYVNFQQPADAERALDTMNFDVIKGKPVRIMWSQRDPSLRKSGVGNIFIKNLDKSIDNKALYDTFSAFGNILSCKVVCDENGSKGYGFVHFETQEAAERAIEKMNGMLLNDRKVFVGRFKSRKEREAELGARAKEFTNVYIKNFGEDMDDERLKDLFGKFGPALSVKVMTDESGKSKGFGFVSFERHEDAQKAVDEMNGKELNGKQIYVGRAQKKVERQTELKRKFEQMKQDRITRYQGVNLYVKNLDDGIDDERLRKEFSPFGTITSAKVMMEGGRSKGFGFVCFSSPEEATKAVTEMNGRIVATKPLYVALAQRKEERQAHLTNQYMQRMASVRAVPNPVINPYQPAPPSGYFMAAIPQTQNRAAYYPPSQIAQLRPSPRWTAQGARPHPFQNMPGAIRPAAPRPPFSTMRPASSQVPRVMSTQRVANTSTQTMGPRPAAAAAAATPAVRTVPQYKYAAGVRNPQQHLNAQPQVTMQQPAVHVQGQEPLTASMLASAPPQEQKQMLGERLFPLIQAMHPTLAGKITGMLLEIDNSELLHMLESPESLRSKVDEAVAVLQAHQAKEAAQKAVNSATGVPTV", "test": "PABP1 MLLE–PAM2 interaction inhibitors, dose response, miRNA deadenylation inhibitor project, biochemical, fluorescence polarization, Cy5-PAM2 peptide, secondary (AID 602260)", "format": "functional", "conditions": "read-out: IC50_Mean"}, "[8]": {"biological_target": "T4, Calpain-2 catalytic subunit (Sus scrofa, UniProt P43367)", "T4 sequence (P43367 whole entry)": "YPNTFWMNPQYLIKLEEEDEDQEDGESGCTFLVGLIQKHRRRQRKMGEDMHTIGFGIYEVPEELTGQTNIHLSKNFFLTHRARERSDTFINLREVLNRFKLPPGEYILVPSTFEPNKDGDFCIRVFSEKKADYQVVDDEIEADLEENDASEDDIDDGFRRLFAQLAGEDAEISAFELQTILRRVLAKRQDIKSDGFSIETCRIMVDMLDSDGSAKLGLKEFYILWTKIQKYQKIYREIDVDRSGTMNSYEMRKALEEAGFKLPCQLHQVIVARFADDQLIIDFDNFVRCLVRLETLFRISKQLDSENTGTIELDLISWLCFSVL", "test": "pig calpain II inhibitor potency, dose response, biochemical, fluorogenic peptide substrate (AID 1420)", "format": "functional"}, "[9]": {"biological_target": "T3, Polyadenylate-binding protein 1", "test": "PABP1 MLLE–PAM2 binding inhibitor potency, dose response, biochemical, fluorescence polarization, FITC-PAM2 peptide (AID 602259)", "format": "functional", "conditions": "read-out: IC50_Mean"}, "Nonstructural protein 1": {"biological_target": "Nonstructural protein 1 (Influenza A virus, UniProt Q194T2)", "sequence (Q194T2 whole entry)": "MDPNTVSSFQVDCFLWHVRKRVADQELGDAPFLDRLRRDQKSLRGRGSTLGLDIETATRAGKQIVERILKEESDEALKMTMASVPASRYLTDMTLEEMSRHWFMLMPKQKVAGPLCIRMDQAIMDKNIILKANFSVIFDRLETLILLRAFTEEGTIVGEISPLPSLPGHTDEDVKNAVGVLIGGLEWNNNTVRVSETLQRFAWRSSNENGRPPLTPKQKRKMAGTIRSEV", "format": "functional, Influenza A virus (A/California/07/2009(H1N1))"}, "[10]": {"biological_target": "T5, RNA-binding protein pos-1 (Caenorhabditis elegans, UniProt G5EF15)", "T5 sequence (G5EF15 whole entry)": "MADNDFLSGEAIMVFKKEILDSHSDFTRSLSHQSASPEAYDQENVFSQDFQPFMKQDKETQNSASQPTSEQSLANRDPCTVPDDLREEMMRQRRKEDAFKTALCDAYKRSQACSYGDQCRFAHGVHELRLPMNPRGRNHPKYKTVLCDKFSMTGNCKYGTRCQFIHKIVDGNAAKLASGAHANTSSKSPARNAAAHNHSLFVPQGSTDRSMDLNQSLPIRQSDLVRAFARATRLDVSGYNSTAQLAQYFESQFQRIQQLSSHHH", "test": "inhibitors of POS-1/mex-3 RNA binding, dose response, biochemical, fluorescence polarization (AID 1964);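 note: purified POS-1 fused to maltose binding protein made in E. coli; potency of compounds blocking POS-1 binding to fluorescent RNA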"}, "[11]": {"biological_target": "T6, Zinc finger protein mex-5 (Caenorhabditis elegans, UniProt Q9XUB2)", "T6 sequence (Q9XUB2 whole entry)": "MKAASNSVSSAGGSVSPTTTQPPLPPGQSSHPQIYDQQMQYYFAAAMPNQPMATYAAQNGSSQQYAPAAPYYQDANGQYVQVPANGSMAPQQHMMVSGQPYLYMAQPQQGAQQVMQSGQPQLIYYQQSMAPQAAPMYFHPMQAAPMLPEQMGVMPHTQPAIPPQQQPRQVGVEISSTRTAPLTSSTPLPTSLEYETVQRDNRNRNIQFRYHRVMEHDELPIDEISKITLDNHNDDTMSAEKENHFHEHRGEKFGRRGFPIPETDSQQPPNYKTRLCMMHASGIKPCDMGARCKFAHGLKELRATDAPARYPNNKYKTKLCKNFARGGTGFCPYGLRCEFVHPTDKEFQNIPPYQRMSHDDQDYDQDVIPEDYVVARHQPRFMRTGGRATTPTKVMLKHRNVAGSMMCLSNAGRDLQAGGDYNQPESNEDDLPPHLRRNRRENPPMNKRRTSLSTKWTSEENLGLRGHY", "test": "MEX-5/TCR-2 RNA interaction inhibitors, dose response, biochemical, C. elegans, fluorescence polarization (AID 1960)"}, "Genome polyprotein": {"biological_target": "Genome polyprotein (dengue virus type 2, UniProt P29990)", "test": "Dengue-2 NS5 methyltransferase inhibitors, primary screen, biochemical, confirmation dose response (AID 588689)", "format": "functional"}}, "note": "The source made the active and inactive calls.", "data": [{"smiles": "O=C(COc1ccc(Br)cc1)N1CCN(c2ncccn2)CC1", "values": [{"measurement": "IC50", "setting": "[1]", "result": "8.99 µM (active)"}, {"measurement": "IC50", "setting": "Beta-galactosidase", "result": "> 80 µM (inactive)"}, {"measurement": "IC50", "setting": "[2]", "result": "10.1 µM (not active)"}]}, {"smiles": "Cc1c(Br)ccc(NC(=O)Cn2nc(-c3cccs3)ccc2=O)c1C", "values": [{"measurement": "IC50", "setting": "[1]", "result": "7.73 µM (active)"}, {"measurement": "IC50", "setting": "[2]", "result": "7.42 µM (active)"}]}, {"smiles": "O=C(COC(=O)Cn1cnc2ccccc2c1=O)Nc1cc(Cl)ccc1[N+](=O)[O-]", "values": [{"measurement": "IC50", "setting": "Prothrombin", "result": "3.35 µM (active)"}]}, {"smiles": "COc1ccc(S(=O)(=O)N(C(=O)c2ccco2)c2cc3sc(=O)oc3c3ccccc23)cc1", "values": [{"measurement": "AC50", "setting": "INS1", "result": "4.56 µM (active)"}, {"measurement": "CC50", "setting": "Vero", "result": "27.7 µM (active)"}]}, {"smiles": "COc1ccc(-n2nc3c(N4CCC(C(=O)NCc5ccccc5C)CC4)nnc(C)c3c2C)cc1", "values": [{"measurement": "IC50", "setting": "[1]", "result": "1.44 µM (active)"}, {"measurement": "IC50", "setting": "[2]", "result": "2.01 µM (active)"}]}, {"smiles": "CC(=O)N(c1ccc2oc(=O)sc2c1)S(=O)(=O)c1cccs1", "values": [{"measurement": "IC50", "setting": "Large T antigen", "result": "40.1 µM (active)"}]}, {"smiles": "COCCn1c(SCC(=O)Nc2ccc(C(N)=O)cc2)nc2c3ccccc3nc-2c1O", "values": [{"measurement": "IC50", "setting": "[3]", "result": "> 50 µM (inactive)"}, {"measurement": "IC50", "setting": "[4]", "result": "6.77 µM (active)"}]}, {"smiles": "O=C(Cn1ncc2c3ccccc3nc-2c1O)NCC1CCN(Cc2ccccc2F)CC1", "values": [{"measurement": "IC50", "setting": "[5]", "result": "> 47.1 µM (inactive)"}, {"measurement": "EC50", "setting": "[6]", "result": "> 53 µM (inactive)"}]}, {"smiles": "Cc1ccc(Nc2c([N+](=O)[O-])ccc3c2=NC2(CCCCC2)N=3)cc1", "values": [{"measurement": "IC50", "setting": "[7]", "result": "> 66 µM (inactive)"}, {"measurement": "IC50", "setting": "[8]", "result": "1.58 µM (not active)"}, {"measurement": "IC50", "setting": "[9]", "result": "> 66 µM (inactive)"}, {"measurement": "IC50", "setting": "Nonstructural protein 1", "result": "17.4 µM (active)"}]}, {"smiles": "CCCC(=O)Nc1nnc(Sc2ccc(N(C)C)cc2)s1", "values": [{"measurement": "IC50", "setting": "[5]", "result": "> 47.1 µM (inactive)"}, {"measurement": "EC50", "setting": "[6]", "result": "> 53 µM (inactive)"}]}, {"smiles": "COc1cc(NC(=O)CSc2nc(C3CC3)nc3ccccc23)cc(OC)c1", "values": [{"measurement": "IC50", "setting": "[1]", "result": "5.56 µM (active)"}, {"measurement": "IC50", "setting": "[2]", "result": "5.35 µM (active)"}]}, {"smiles": "O=C1C([N+](=O)[O-])=C(O)c2cccc3cccc1c23", "values": [{"measurement": "IC50", "setting": "[3]", "result": "31.2 µM (active)"}, {"measurement": "EC50", "setting": "[10]", "result": "12.6 µM (active)"}, {"measurement": "IC50", "setting": "[4]", "result": "> 56.8 µM (not active)"}, {"measurement": "EC50", "setting": "[11]", "result": "9.23 µM (active)"}]}, {"smiles": "O=C1C(Cl)=CC(=Nc2ccc(O)cc2)C=C1Cl", "values": [{"measurement": "IC50", "setting": "Genome polyprotein", "result": "7.02 µM (active)"}, {"measurement": "IC50", "setting": "[7]", "result": "> 66 µM (inactive)"}, {"measurement": "IC50", "setting": "[9]", "result": "> 66 µM (inactive)"}, {"measurement": "CC50", "setting": "Vero", "result": "37.7 µM (active)"}]}, {"smiles": "C=CCNC(=O)/C(C#N)=C\\c1cc(Cl)c(O)c(OCC)c1", "values": [{"measurement": "IC50", "setting": "Prothrombin", "result": "> 50 µM (not active)"}]}, {"smiles": "c1ccc(-c2csc(NNC3=NCCCCC3)n2)cc1", "values": [{"measurement": "IC50", "setting": "Large T antigen", "result": "61.1 µM (active)"}]}]}
